Measurements from patent publication US20210087195A1, “NEW CRYSTAL FORM OF ACALBRUTINIB, PREPARATION METHOD THEREFOR AND USE THEREOF” (Crystal Pharmaceutical (Suzhou) Co., Ltd., priority 2018, published 2021).
In brackets after ≈: the same amount, converted by molar mass. Entries after “also recorded” stand apart in the source; their conditions may differ. Where two headings read alike, the source gives them in different places.

Experiments:
Type in all cases: physicochemical
[1] = Physical stability of crystalline form in water (suspension, magnetic stirring or shaking, XRPD); settings: for Physical stability in water (crystalline form change): magnetic stirring and shaking at room temperature and 5° C., up to 7 days
Method: The following experiments were conducted to compare physical stability of Form K1 of the present disclosure and Form I of WO2017002095A1 in water. Approximately 10 mg of Form K1 and Form I solids were added into 1.0 mL of pure water separately to form suspensions. The suspensions were dispersed by magnetic stirring and shaking at room temperature and 5° C. to evaluate the physical stability of Form K1 and Form I of WO2017002095A1 in water.

[2] = Slurry competition experiments between Form K1 and Form I in water; settings: 5° C. and room temperature
Method: Approximately 30 mg of Form K1 and Form I of WO2017002095A1 were weighed and suspended into water at 5° C. and room temperature, to evaluate the stability of Form K1 and Form I of WO2017002095A1.

[3] = Solubility in buffers of pH 7.0, 7.4 and 8.7 (HPLC); settings: for solubility at 2 h: phosphate buffer, thermodynamic from solid, read-out: Solubility after equilibration for 2 hours
Method: A sufficient amount of Form K1 or Form I of WO2017002095A1 was suspended in buffers of pH 7.0, 7.4 and 8.7. After being stirred and equilibrated for 2 hours, the suspension was centrifuged to obtain supernatant. Concentration (mg/mL) of the supernatant was analyzed by HPLC.

[4] = Solubility in organic solvents (incremental solvent addition)
Method: A certain amount of Form K1 or Form I of WO2017002095A1 was added into a glass vial. Organic solvent was added into the glass vial in increments of 100 μL. Solid was quickly dispersed in solvent through oscillation or sonication, and the process was monitored to see whether the solid was completely dissolved. No more solvent was added when solids were completely dissolved, or a total volume of solvent reached 1.5 mL. According to mass of sample (m) and volume of solvent added, solubility (S) of different crystalline forms in organic solvent was calculated.

[5] = Compressibility (tensile strength of compressed powder); settings: φ6 mm round tooling, compressed at 10 kN, T=2H/πDL
Method: Approximately 80 mg of Form K1 or Form I of WO2017002095A1 was added into the dies of φ6 mm round tooling, compressed at 10 kN manually, and then stored in a desiccator for 24 hours until complete elastic recovery. Radial crushing force (hardness, H) was tested with an intelligent tablet hardness tester. Diameter (D) and thickness (L) were tested with a caliper. Tensile strength of the powder with different hardness was calculated with the following formula: T=2H/πDL. Under a certain force, the greater the tensile strength, the better the compressibility.

[6] = Adhesiveness (amount sticking to the punch); settings: φ8 mm round tooling, 10 kN, held 30 s, compression repeated twice
Method: Approximately 30 mg of Form K1 or Form I of WO2017002095A1 was weighed and then added into the dies of φ8 mm round tooling, compressed at 10 kN and held for 30 s. The amount of material sticking to the punch was weighed. The compression was repeated twice and the cumulative amount and average amount of solids sticking to the punch during the compression were recorded.

[7] = Stability of drug substance at long-term and accelerated conditions (XRPD); settings: for Solid form after storage: one month
Method: Four samples, 10 mg each of Form K1 of the present disclosure was stored in HPLC glass vials. The HPLC glass vials were capped in sealed conditions, or covered with Parafilm with 3-5 pinholes in open conditions. After one month, solid forms were checked by XRPD.

[8] = Physical stability under manual grinding (XRPD); settings: ground manually in a mortar for 5 minutes
Method: Form K1 was ground manually in a mortar for 5 minutes.

[9] = Form change during capsule formulation process (XRPD); settings: before and after capsule preparation
Method: Form K1 capsules were prepared according to the formulation listed in Table 11 and the preparation process described in Table 12. XRPD was performed to test the form change before and after capsule preparation.

[10] = listed as Form I of WO2017002095A1

With CC#CC(=O)N1CCC[C@H]1c1nc(-c2ccc(C(=O)Nc3ccccn3)cc2)c2c(N)nccn12 [Form I, (S)-4-(8-amino-3-(1-(but-2-ynoyl)pyrrolidin-2-yl)imidazo[1,5-a]pyrazin-1-yl)-N-(pyridin-2-yl)benzamide, reference compound] the “Physical stability in water (crystalline form change)” value [1] was “crystallinity decrease and almost converts into amorphous”, the “Solid form changes in the suspension” value ([1]; water, magnetic stirring, room temperature, 4 hours) was “crystallinity decrease and almost converts into amorphous” and the “Form conversion in slurry competition” value [2] was “convert into Form K1”. For the same compound, the “Solubility after equilibration for 2 hours” value (“Solubility … for 2 hours” below) ([3]; pH = 7.0 phosphate aqueous solution) was 64 µg/mL, the “Solubility … for 2 hours” value ([3]; pH = 7.4 phosphate aqueous solution) was 55 µg/mL and the “Solubility … for 2 hours” value ([3]; pH = 8.7 phosphate aqueous solution) was 56 µg/mL. For the same compound, the Solubility ([4]; 1,4-Dioxane) was “S < 13.1 mg/mL”, the Solubility ([4]; 2-methyltetrahydrofuran) was “S < 8.9 mg/mL” and the Solubility ([4]; Acetone) was “S < 6.5 mg/mL”. The Solubility ([4]; Acetonitrile) was “S < 7.8 mg/mL”, the Solubility ([4]; Ethanol) was “S < 6.4 mg/mL” and the Solubility ([4]; Ethyl acetate) was “S < 7.9 mg/mL”. The Solubility ([4]; Isopropanol) was “S < 6.5 mg/mL”, the Solubility ([4]; Methanol) was “S < 27.0 mg/mL” and the Solubility ([4]; Methyl ethyl ketone) was “S < 7.6 mg/mL”. For the same compound, the Solubility ([4]; Methyl isobutyl ketone) was “S < 7.7 mg/mL”, the Solubility ([4]; Tetrahydrofuran) was “S < 16.1 mg/mL” and the Solubility ([4]; n-Butanol) was “S < 8.7 mg/mL”. The Solubility ([4]; n-Propanol) was “S < 7.5 mg/mL”, the Tensile strength [5, 10] was “Unable to be compressed into a tablet” and the “Average amount sticking to the punch” value [6, 10] was 45 µg. For the same compound, the “Cumulative amount sticking to the punch” value [6, 10] was 90 µg.

With CC#CC(=O)N1CCC[C@H]1c1nc(-c2ccc(C(=O)Nc3ccccn3)cc2)c2c(N)nccn12 [Form K1, (S)-4-(8-amino-3-(1-(but-2-ynoyl)pyrrolidin-2-yl)imidazo[1,5-a]pyrazin-1-yl)-N-(pyridin-2-yl)benzamide] the “Physical stability in water (crystalline form change)” value [1] was “no crystalline form change; also recorded: doesn't change”, the “Stability of drug substance (time kept stable)” value ([7]; 25° C./60% RH and 40° C./75% RH, sealed and open) was “stable for at least one month” and the “Solid form after storage” value ([7]; 25° C./60% RH, open) was “Form K1”. The “Solid form after storage” value ([7]; 25° C./60% RH, sealed) was “Form K1”, the “Solid form after storage” value ([7]; 40° C./75% RH, open) was “Form K1” and the “Solid form after storage” value ([7]; 40° C./75% RH, sealed) was “Form K1”. It also gave a solubility at 2 h ([3]; pH 7, aqueous buffer, pH = 7.0 phosphate aqueous solution) of 79 µg/mL (≈ 170 µM), a solubility at 2 h ([3]; pH 7.4, aqueous buffer, pH = 7.4 phosphate aqueous solution) of 69 µg/mL (≈ 148 µM) and a solubility at 2 h ([3]; pH 8.7, aqueous buffer, pH = 8.7 phosphate aqueous solution) of 66 µg/mL (≈ 142 µM). For the same compound, the Solubility ([4]; 1,4-Dioxane) was “S > 102.0 mg/mL”, the Solubility ([4]; 2-methyltetrahydrofuran, organic solvent or mixture, thermodynamic from solid, 2-methyltetrahydrofuran, read-out: Solubility) was over 17600 µg/mL and the Solubility ([4]; Acetone) was “S > 137.0 mg/mL”. For the same compound, the Solubility ([4]; Acetonitrile) was “S > 36.3 mg/mL”, the Solubility ([4]; Ethanol) was “S > 120.0 mg/mL” and the Solubility ([4]; Isopropanol) was “S > 48.0 mg/mL”. The Solubility ([4]; Methanol) was “S > 89.0 mg/mL”, the Solubility ([4]; Methyl ethyl ketone) was “S > 114.0 mg/mL” and the Solubility ([4]; Tetrahydrofuran) was “S > 142.0 mg/mL”. For the same compound, the Solubility ([4]; ethyl acetate, organic solvent or mixture, thermodynamic from solid, Ethyl acetate, read-out: Solubility) was over 13200 µg/mL, the Solubility ([4]; methyl isobutyl ketone, organic solvent or mixture, thermodynamic from solid, Methyl isobutyl ketone, read-out: Solubility) was over 10000 µg/mL and the Solubility ([4]; n-Butanol) was “S > 30.3 mg/mL”. For the same compound, the Solubility ([4]; n-Propanol) was “S > 58.0 mg/mL”, the “Physical stability under grinding (form change)” value [8] was “no obvious form change or crystallinity decrease” and the Tensile strength [5] was 1.31 MPa. The “Average amount sticking to the punch” value [6] was 30 µg, the “Cumulative amount sticking to the punch” value [6] was 60 µg and the “Form change during capsule formulation process” value [9] was “doesn't change”.
